According to ChEMBL document CHEMBL1158322, “New Terpenylated Dihydrochalcone Derivatives Isolated from Mitrella kentii” (J Nat Prod, 1997):
Values after ≈ are worked out from the molar mass of the structure shown.

These molecules were tested on NSCLC (assay: Cytotoxicity against human NSCLC cells by MTT assay).
Format: functional, cell-based

| SMILES | IC50 [µg/mL] |
| --- | --- |
| CC1=C[C@H](c2c(O)cc(O)c(C(=O)CCc3ccccc3)c2O)[C@H](C(C)C)CC1 [LINDERATIN] | 3.8 (≈ 9.63 µM) |
| CC1=C[C@H](c2c(O)cc(O)c(C(=O)CCc3ccccc3)c2O)[C@@H](C(C)C)CC1 | > 30 |
| CC1=C[C@H](c2c(O)c(C(=O)CCc3ccccc3)c(O)c([C@H]3C=C(C)CC[C@@H]3C(C)C)c2O)[C@@H](C(C)C)CC1 | > 30 |
| CC1=C[C@H](c2c(O)c(C(=O)CCc3ccccc3)c(O)c([C@H]3C=C(C)CC[C@H]3C(C)C)c2O)[C@H](C(C)C)CC1 [NEOLINDERATIN] | > 30 |
